pIC50: −log10 of the molar value.
Assays:
[1] = system: HCV replicon cells Huh 9B; assay: HCV replicon assay (luciferase readout); type: cell-based; details: Hepatitis C virus, 72 h, concentration reducing replicon level (luciferase activity) by 50% vs untreated cell control; 72 h incubation
Method in brief: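 Compounds, made up at twice final strength (final DMSO 1%), were added to subgenomic replicon cells one day after plating. Incubation then ran 72 h at 37 °C, 5% CO2, without G418. Replication was quantified as firefly luciferase luminescence in lysed cells, with cytotoxicity assessed on a duplicate clear plate.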

[2] = system: HCV replicon cells Huh 9B; type: cell-based; details: concentration reducing total cell area by 50% relative to DMSO controls; methylene blue, absorbance 620 nm; 72 h incubation

Row | SMILES | pIC50 [1] | TD50 [2]
1 | Cc1ccc(NC(=O)C2CCCCC2)cc1-c1ccc(C(=O)Nc2ccc(-n3cncn3)cc2)cc1 [Example 219, 5′-(Cyclohexanecarbonyl-amino)-2′-methyl-biphenyl-4-carboxylic acid (4-[1,2,4]triazol-1-yl-phenyl)-amide] | 5.30 to 6.00 | * (* < 50 μM)
2 | CCC1(c2ccc(NC(=O)c3ccc(-c4cc(NC(=O)C5CC5)ccc4C)cc3)cc2)CCC(=O)NC1=O (stereo not drawn) [Example 220, 5′-(Cyclopropanecarbonyl-amino)-2′-methyl-biphenyl-4-carboxylic acid [4-(3-ethyl-2,6-dioxo-piperidin-3-yl)-phenyl]-amide] | > 6.00 | * (* < 50 μM)
3 | CCC1(c2ccc(NC(=O)c3ccc(-c4cc(NC(=O)C5CCCCC5)ccc4C)cc3)cc2)CCC(=O)NC1=O (stereo not drawn) [Example 221, 5′-(Cyclohexanecarbonyl-amino)-2′-methyl-biphenyl-4-carboxylic acid [4-(3-ethyl-2,6-dioxo-piperidin-3-yl)-phenyl]-amide] | > 6.00 | * (* < 50 μM)
4 | Cc1ccc(NC(=O)C2CCCCC2)cc1-c1ccc(C(=O)Nc2ccc(CN(C)C)cc2)cc1 [Example 222, 5′-(Cyclohexanecarbonyl-amino)-2′-methyl-biphenyl-4-carboxylic acid (4-dimethylaminomethyl-phenyl)-amide] | 5.30 to 6.00 | * (* < 50 μM)
5 | Cc1ccc(NC(=O)C2CC2)cc1-c1ccc(C(=O)Nc2ccc(CN(C)C)cc2)cc1 [Example 223, 5′-(Cyclopropanecarbonyl-amino)-2′-methyl-biphenyl-4-carboxylic acid (4-dimethylaminomethyl-phenyl)-amide] | 5.30 to 6.00 | * (* < 50 μM)
6 | Cc1ccc(NC(=O)C2CC2)cc1-c1ccc(C(=O)Nc2ccccc2CN2CCCCC2)cc1 [Example 224, 5′-(Cyclopropanecarbonyl-amino)-2′-methyl-biphenyl-4-carboxylic acid (2-piperidin-1-ylmethyl-phenyl)-amide] | 5.30 to 6.00 | * (* < 50 μM)
7 | Cc1ccc(NC(=O)C2CC2)cc1-c1ccc(C(=O)Nc2cccc(CN(C)C)c2)cc1 [Example 225, 5′-(Cyclopropanecarbonyl-amino)-2′-methyl-biphenyl-4-carboxylic acid (3-dimethylaminomethyl-phenyl)-amide] | < 5.30 | * (* < 50 μM)
8 | Cc1ccc(NC(=O)C2CCCCC2)cc1-c1ccc(C(=O)Nc2ccc(CN3CCOCC3)cc2)cc1 [Example 226, 5′-(Cyclohexanecarbonyl-amino)-2′-methyl-biphenyl-4-carboxylic acid (4-morpholin-4-ylmethyl-phenyl)-amide] | > 6.00 | * (* < 50 μM)
9 | Cc1ccc(NC(=O)C2CCCCC2)cc1-c1ccc(C(=O)Nc2ccc(CN3CCCC3)cc2)cc1 [Example 227, 5′-(Cyclohexanecarbonyl-amino)-2′-methyl-biphenyl-4-carboxylic acid (4-pyrrolidin-1-ylmethyl-phenyl)-amide] | 5.30 to 6.00 | * (* < 50 μM)
10 | Cc1ccc(NC(=O)C2CC2)cc1-c1ccc(C(=O)Nc2ccc(CN3CCCCC3)cc2)cc1 [Example 228, 5′-(Cyclopropanecarbonyl-amino)-2′-methyl-biphenyl-4-carboxylic acid (4-piperidin-1-ylmethyl-phenyl)-amide] | 5.30 to 6.00 | * (* < 50 μM)
11 | Cc1ccc(NC(=O)C2CC2)cc1-c1ccc(C(=O)Nc2ccc(CN3CCCC3)cc2)cc1 [Example 230, 5′-(Cyclopropanecarbonyl-amino)-2′-methyl-biphenyl-4-carboxylic acid (4-pyrrolidin-1-ylmethyl-phenyl)-amide] | 5.30 to 6.00 | * (* < 50 μM)
12 | Cc1ccc(NC(=O)C2CCCCC2)cc1-c1ccc(C(=O)Nc2ccc(-c3ccno3)cc2)cc1 [Example 231, 5′-(Cyclohexanecarbonyl-amino)-2′-methyl-biphenyl-4-carboxylic acid (4-isoxazol-5-yl-phenyl)-amide] | < 5.30 | * (* < 50 μM)
